Data taken from article PMC9322761, “Design, Synthesis and Biological Characterization of Histone Deacetylase 8 (HDAC8) Proteolysis Targeting Chimeras (PROTACs) with Anti-Neuroblastoma Activity” (International Journal of Molecular Sciences, 2022).
Like-named read-outs stand apart in the source and are kept apart here.

Assays:
[1] = system: IMR-32 cells; assay: Cell viability / proliferation (trypan blue, viable cell count) in neuroblastoma cells; type: cell-based, human; settings: 5 and 10 µM
Experimental: Moreover, we treated neuroblastoma IMR-32 cells with the remaining PROTACs and counted the resulting viable cells. We quantified the percentage of dead cells as shown in (Figure 5B,C). In addition, cell proliferation was assessed via counting of viable cells (Figure 5D,E). […] As reference, the HDAC8 inhibitor PCI-34501 was used.
Adherent cells were detached using trypsin–EDTA (ThermoFisher Scientific, Bremen, Germany) and pooled with corresponding supernatant, centrifuged, and resuspended in 1 mL of cell culture medium. Cell viability (viable cell number, % viability, % dead cells) was measured by automated trypan blue staining using the Vi-Cell XR Cell Viability Analyzer (Beckman Coulter, Krefeld, Germany).
Figure 5 (A) Neuroblastoma SK-N-BE(2)-C cells; Colony Assay, 10 days (compound treatment within first 96 h). Stained with crystal violet and quantified with ImageJ. (B,C) Trypan Blue assay for detection of dead cells. Neuroblastoma IMR-32 cells were either treated with 5 µM (B) or 10 µM (C). (D,E) Cell proliferation assessed via counting of viable cells. IMR-32 cells were either treated with 5 µM (D) or 10 µM (E) PROTACs. HDAC8i PCI-34501 served as a positive control, untreated (MEM) and solvent (DMSO) treated cells served as negative controls.

[2] = target: T1, HDAC8 (Homo sapiens, UniProt Q9BY41); assay: In vitro HDAC8 activity assay (Fluor de Lys-HDAC8); type: biochemical; design: made in house; settings: for SI (HDAC6/HDAC8): selectivity index, HDAC6 over HDAC8
T1 sequence (Q9BY41 1-377): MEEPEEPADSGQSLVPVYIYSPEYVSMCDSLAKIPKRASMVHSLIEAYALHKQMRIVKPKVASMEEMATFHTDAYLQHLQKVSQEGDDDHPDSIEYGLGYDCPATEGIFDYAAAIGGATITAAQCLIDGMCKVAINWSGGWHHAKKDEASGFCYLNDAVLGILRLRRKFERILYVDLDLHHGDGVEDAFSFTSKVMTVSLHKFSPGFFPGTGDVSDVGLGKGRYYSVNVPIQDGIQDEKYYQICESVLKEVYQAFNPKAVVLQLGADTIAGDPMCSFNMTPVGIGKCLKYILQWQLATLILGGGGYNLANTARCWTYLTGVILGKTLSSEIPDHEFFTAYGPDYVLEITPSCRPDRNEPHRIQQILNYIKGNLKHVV
Experimental: Recombinant hHDAC8 was produced by Romier et al. in Strasbourg. The HDAC8 activity assays were performed according to the commercial HDAC8 Fluorometric Drug Discovery Kit (Fluor de Lys(R)-HDAC8, BML-KI178) corresponding to the instructions of the manufacturer. As substrate a tetrapeptide connected to aminomethylcoumarin (AMC) H2N-Arg- His-Lys(Ac)-Lys(Ac)-AMC was synthesized as previously described. The enzyme was incubated for 90 min at 37 °C, with a substrate concentration of 50 µM and increasing concentrations of inhibitors. The stop-solution-containing inhibitor was added to stop the hHDAC8 activity, and Trypsin was added to release the AMC. The solution was incubated for 20 min at 37 °C to develop the assay.
(§1) Inhibition was measured at increasing concentration and IC50 was calculated by nonlinear regression with Origin 9.0G software.

[3] = target: HDAC1 (Homo sapiens, UniProt Q13547); assay: In vitro HDAC inhibitory activity assay, recombinant HDAC1 (fluorogenic substrate ZMAL); type: biochemical; design: purchased BPS Biosciences
Experimental: (§2) The in vitro testing on recombinant HDACs was performed as previously described. Recombinant human HDAC1 and −6 were purchased from BPS Biosciences. The enzyme inhibition was determined by using a reported homogenous fluorescence assay. […] Fluorescence intensity was measured at an excitation wavelength of 390 nm and an emission wavelength of 460 nm in a microtiter plate reader (BMG Polarstar).
as §1

[4] = target: T2, HDAC6 (Homo sapiens, UniProt Q9UBN7); assay: In vitro HDAC inhibitory activity assay, recombinant HDAC6 (fluorogenic substrate ZMAL); type: biochemical; design: purchased BPS Biosciences; settings: Table 1, PROTACs; read-out: HDAC6 IC50
T2 sequence (Q9UBN7 1-1215): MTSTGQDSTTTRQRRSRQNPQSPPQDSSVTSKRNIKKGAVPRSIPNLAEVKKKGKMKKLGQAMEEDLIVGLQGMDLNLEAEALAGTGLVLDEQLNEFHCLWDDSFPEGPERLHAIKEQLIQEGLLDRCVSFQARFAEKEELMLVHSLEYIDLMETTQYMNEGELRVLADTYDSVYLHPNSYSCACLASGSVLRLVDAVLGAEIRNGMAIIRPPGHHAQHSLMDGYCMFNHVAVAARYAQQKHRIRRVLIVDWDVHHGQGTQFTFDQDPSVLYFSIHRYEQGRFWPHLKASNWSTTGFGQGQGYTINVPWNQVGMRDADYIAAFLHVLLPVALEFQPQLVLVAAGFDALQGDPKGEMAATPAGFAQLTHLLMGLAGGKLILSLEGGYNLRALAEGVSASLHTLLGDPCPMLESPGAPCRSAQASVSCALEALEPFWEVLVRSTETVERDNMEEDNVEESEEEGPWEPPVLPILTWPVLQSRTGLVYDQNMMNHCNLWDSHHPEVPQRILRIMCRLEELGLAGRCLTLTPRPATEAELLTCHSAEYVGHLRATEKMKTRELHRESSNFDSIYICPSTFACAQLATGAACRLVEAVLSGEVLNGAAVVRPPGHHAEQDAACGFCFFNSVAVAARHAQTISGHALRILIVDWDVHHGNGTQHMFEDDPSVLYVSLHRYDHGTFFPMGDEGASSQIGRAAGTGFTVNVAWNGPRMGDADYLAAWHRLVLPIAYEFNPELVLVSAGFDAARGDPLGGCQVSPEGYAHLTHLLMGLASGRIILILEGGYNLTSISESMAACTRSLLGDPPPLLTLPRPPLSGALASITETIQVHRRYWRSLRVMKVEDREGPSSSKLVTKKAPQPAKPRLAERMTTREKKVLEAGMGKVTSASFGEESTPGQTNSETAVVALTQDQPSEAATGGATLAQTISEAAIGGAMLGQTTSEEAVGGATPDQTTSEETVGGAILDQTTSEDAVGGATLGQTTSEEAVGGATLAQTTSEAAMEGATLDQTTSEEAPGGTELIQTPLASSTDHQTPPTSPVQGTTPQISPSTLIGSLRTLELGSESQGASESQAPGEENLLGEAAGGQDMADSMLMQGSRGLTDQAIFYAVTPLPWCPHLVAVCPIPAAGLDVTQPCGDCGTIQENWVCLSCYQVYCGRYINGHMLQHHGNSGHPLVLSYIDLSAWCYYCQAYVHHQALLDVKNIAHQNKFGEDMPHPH
Experimental: as §2, §1

[5] = target: T1, HDAC8; design: made in house; method as in PMID 29190092, PMID 26937828; settings: Table 2, previously published benzhydroxamate inhibitors; read-out: HDAC8 IC50; cited from earlier work
[6] = target: T1, HDAC8; assay: HDAC8 degradation in SK-N-BE(2)-C neuroblastoma cells (Western blot); type: cell-based; design: endogenous in cells; host or cells: SK-N-BE(2)-C; settings: SK-N-BE(2)-C cells, up to 10 µM, Western blot
Experimental: Whole cell lysates from treated SK-N-BE(2)-C neuroblastoma cells were taken and the protein levels for HDAC8 and the acetylation of its substrate SMC3 were determined (Figure 6). As a control for HDAC6, we also assessed acetylation levels of α-tubulin. […] Western blot analysis was performed as described previously (Kolbinger et al.).
(§3) Figure 6 (A) SK-N-BE(2)-C neuroblastoma cells were treated for indicated time points with 10 µM of PROTACs. Degradation of HDAC8 and acetylation of HDAC8 target was analyzed via Western blot. (B) SK-N-BE(2)-C neuroblastoma cells were treated for 6 h with indicated concentrations of HyT_1p, CRBN_1b and HyT_1m. Acetylation of HDAC8 target SMC3 and HDAC6 target tubulin, as well as total HDAC8 levels, were assessed by Western blot. Quantified ac-SMC3 or ac-tubulin expression, respectively, was normalized to the respective tubulin loading control and to the solvent control (DMSO). This quantification is reflected by the numbers below each blot. […] Total HDAC6, total HDAC1, total HDAC8, and acetyl-histone H4 expression levels, were assessed by Western blot. Total GAPDH protein levels served as a loading control (LC). * unspecific bands obtained through reprobing of the membrane.

[7] = system: acetylated SMC3; assay: Acetylation of HDAC8 substrate SMC3 in SK-N-BE(2)-C cells (Western blot); type: cell-based, human; settings: 10 µM
Experimental: To test the degradation of HDAC8 with the developed PROTACs, we selected the most promising compounds obtained from the cellular neuroblastoma testing; namely CRBN_1b, CRBN_1d, CRBN_1e, HyT_1m, and HyT_1p. Whole cell lysates from treated SK-N-BE(2)-C neuroblastoma cells were taken and the protein levels for HDAC8 and the acetylation of its substrate SMC3 were determined (Figure 6). As a control for HDAC6, we also assessed acetylation levels of α-tubulin. […]. A clear dose-dependent degradation of HDAC8 by PROTAC CRBN_1e was observed (Figure 6C). After 48 h, the HDAC8 protein level was back to baseline, presumably due to de novo protein synthesis. […]. Western blot analysis was performed as described previously (Kolbinger et al.). […]
as §3, with “(B) SK-N-BE(2)-C neuroblastoma cells were treated for 6 h with indicated concentrations of HyT_1p, CRBN_1b and HyT_1m.” left out, “Total GAPDH protein levels served as a loading control (LC). * unspecific bands obtained through reprobing of the membrane.” left out

[8] = system: HDAC8; design: method as in PMID 35311871; settings: Jurkat cells; cited from earlier work

Sequence of HDAC1 (Q13547 whole entry): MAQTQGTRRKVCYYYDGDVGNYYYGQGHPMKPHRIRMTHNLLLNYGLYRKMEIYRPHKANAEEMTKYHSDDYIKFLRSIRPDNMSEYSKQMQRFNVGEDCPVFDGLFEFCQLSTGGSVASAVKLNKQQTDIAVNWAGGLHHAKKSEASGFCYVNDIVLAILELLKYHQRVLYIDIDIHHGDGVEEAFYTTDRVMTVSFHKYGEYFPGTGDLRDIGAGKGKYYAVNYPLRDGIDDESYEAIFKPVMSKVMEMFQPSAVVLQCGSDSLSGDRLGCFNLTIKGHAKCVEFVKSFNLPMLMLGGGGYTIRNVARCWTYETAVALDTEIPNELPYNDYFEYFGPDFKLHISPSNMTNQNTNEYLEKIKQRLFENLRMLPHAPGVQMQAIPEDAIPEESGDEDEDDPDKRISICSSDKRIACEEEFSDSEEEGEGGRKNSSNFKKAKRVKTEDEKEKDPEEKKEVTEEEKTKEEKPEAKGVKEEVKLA

SMILES: COc1ccc(C(=O)NO)cc1NC(=O)c1ccc(NC(=O)CCCCCCC(=O)N[C@H](C(=O)N2C[C@H](O)C[C@H]2C(=O)NCc2ccc(-c3scnc3C)cc2)C(C)(C)C)cc1 [VHL_1k]
- Effect in cell proliferation assay (viable cell count) [1]: less significant
- IC50 ([2]; Table 1, PROTACs): 110 ± 10 nM
- SI (HDAC6/HDAC8) [2]: 3
- IC50 ([3]; Table 1, PROTACs, read-out: HDAC1 IC50): > 20000 nM
- IC50 [4]: 310 ± 10 nM

SMILES: O=C(NO)c1cccc(NCc2ccccc2)c1 [2d]
- IC50 [5]: 140 ± 10 nM

SMILES: COc1ccc(C(=O)NO)cc1NC(=O)c1ccccc1 [2b]
- IC50 [5]: 90 ± 20 nM
- SI (HDAC6/HDAC8) [2]: 28

SMILES: Cc1ccc(C(=O)NO)cc1NCc1ccc(OCc2cn(Cc3ccccc3)nn2)cc1 [33b]
- IC50 ([2]; negative control without pomalidomide warhead): 698 ± 41 nM
- HDAC8 degradation [6]: no HDAC8 degradation
- Hyperacetylation of HDAC8 substrate SMC3 [7]: hyperacetylation of SMC3

SMILES: O=C1CCC(N2C(=O)c3cccc(NCCCCCCCCCCCNC(=O)c4cccc(SCc5cn(-c6cccc(C(=O)NO)c6)nn5)c4)c3C2=O)C(=O)N1 (stereo not drawn) [XIII]
- HDAC8 degradation [8]: efficient degradation of HDAC8 enzyme

SMILES: COc1ccc(C(=O)NO)cc1NC(=O)c1ccc(NC(=O)CCCCCNC(=O)CC23CC4CC(CC(C4)C2)C3)cc1 [HyT_1m]
- Effect in cell proliferation assay (viable cell count) [1]: less significant
- IC50 ([2]; Table 1, PROTACs): 570 ± 110 nM
- HDAC8 degradation [6]: failed to degrade HDAC8
- inhibition at 1 µM ([3]; 1 µM, read-out: HDAC1 % inhib. at given conc.): 47.7%
- inhibition at 10 µM ([3]; 10 µM, read-out: HDAC1 % inhib. at given conc.): 81.9%
- IC50 [4]: 250 ± 80 nM
